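Values below derive from 48-hour exposures of cells grown in 96-well plates, with endpoints linearly interpolated between the two concentrations bracketing the appropriate inhibition level. GI50: concentration for 50% inhibition of growth. At the TGI there is no net growth.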
How the values were obtained:
Assay in all cases: NCI-60 cell line screen, 48 h
[1] = tested on: OVCAR-5 ovarian
[2] = tested on: HL-60(TB) leukemia
[3] = tested on: K-562 leukemia
[4] = tested on: MDA-MB-435
[5] = tested on: MCF7 breast
[6] = tested on: EKVX NSCLC
[7] = tested on: OVCAR-3 ovarian
[8] = tested on: SW-620 colon
[9] = tested on: UO-31 renal
[10] = tested on: IGROV1 ovarian
[11] = tested on: SF-539 CNS
[12] = tested on: A549 NSCLC
[13] = tested on: HT29 colon
[14] = tested on: U251 CNS
[15] = tested on: CAKI-1 renal
[16] = tested on: OVCAR-8 ovarian
[17] = tested on: NCI-H522 lung
[18] = tested on: MALME-3M melanoma
[19] = tested on: TK-10 renal
[20] = tested on: A498 renal
[21] = tested on: SK-MEL-28 melanoma
[22] = tested on: CCRF-CEM leukemia
[23] = tested on: COLO 205 colon
[24] = tested on: SF-268 CNS
[25] = tested on: SNB-75 CNS
[26] = tested on: NCI/ADR-RES ovarian
[27] = tested on: M14 melanoma
[28] = tested on: HCT-116 colon
[29] = tested on: OVCAR-4 ovarian
[30] = tested on: SK-MEL-2 melanoma
[31] = tested on: MOLT-4 leukemia
[32] = tested on: DU-145 prostate
[33] = tested on: 786-0 renal
[34] = tested on: MDA-MB-231 breast
[35] = tested on: NCI-H460 lung
[36] = tested on: UACC-62 melanoma
[37] = tested on: SNB-19 CNS
[38] = tested on: NCI-H23 lung
[39] = tested on: SK-OV-3 ovarian
[40] = tested on: HOP-92 NSCLC
[41] = tested on: UACC-257 melanoma
[42] = tested on: HS 578T breast
[43] = tested on: HCT-15 colon
[44] = tested on: NCI-H226 lung
[45] = tested on: HOP-62 NSCLC
[46] = tested on: SK-MEL-5 melanoma
[47] = tested on: T-47D breast
[48] = tested on: ACHN renal
[49] = tested on: RXF 393 renal
[50] = tested on: PC-3 prostate
[51] = tested on: SF-295 CNS
[52] = tested on: SR leukemia
[53] = tested on: SN12C renal
[54] = tested on: KM12 colon
[55] = tested on: RPMI-8226 leukemia

## CCOc1ccc(-c2nc3ccc(-c4nc5ccc(N6CCN(C)CC6)cc5[nH]4)cc3[nH]2)cc1OCC
[1]
  GI50: 4.37 µM
  TGI: 14.2 µM
[2]
  GI50: 1.16 µM
  TGI: 4.7 µM
[3]
  GI50: 0.778 µM
  TGI: 9.01 µM
[4]
  GI50: 1.01 µM
  TGI: 2.38 µM
[5]
  GI50: 0.498 µM
  TGI: 3.05 µM
[6]
  GI50: 5.06 µM
  TGI: > 100 µM
[7]
  GI50: 0.648 µM
  TGI: 2.63 µM
[8]
  GI50: 0.796 µM
  TGI: 2.89 µM
[9]
  GI50: 12.4 µM
  TGI: 35.9 µM
[10]
  GI50: 1.94 µM
  TGI: 6.2 µM
[11]
  GI50: 1.2 µM
  TGI: 2.71 µM
[12]
  GI50: 8.34 µM
  TGI: 28.5 µM
[13]
  GI50: 2.6 µM
  TGI: 12.1 µM
[14]
  GI50: 1.32 µM
  TGI: 6.71 µM
[15]
  GI50: 2.71 µM
  TGI: 17.6 µM
[16]
  GI50: 2.66 µM
  TGI: 14.5 µM
[17]
  GI50: 1.16 µM
  TGI: 3.8 µM
[18]
  GI50: 0.222 µM
  TGI: 1.23 µM
[19]
  GI50: 6.22 µM
  TGI: 38.9 µM
[20]
  GI50: 1.51 µM
  TGI: 4.58 µM
[21]
  GI50: 0.701 µM
  TGI: 2.18 µM
[22]
  GI50: 2.04 µM
  TGI: 22.8 µM
[23]
  GI50: 0.322 µM
  TGI: 2 µM
[24]
  GI50: 1.85 µM
  TGI: 6.9 µM
[25]
  GI50: 1.03 µM
  TGI: 2.56 µM
[26]
  GI50: > 100 µM
  TGI: > 100 µM
[27]
  GI50: 0.831 µM
  TGI: 3.84 µM
[28]
  GI50: 0.529 µM
  TGI: 2.72 µM
[29]
  GI50: 2.19 µM
  TGI: 6.79 µM
[30]
  GI50: 1.49 µM
  TGI: 3.27 µM
[31]
  GI50: 2.75 µM
  TGI: 9.76 µM
[32]
  GI50: 2.37 µM
  TGI: 8.1 µM
[33]
  GI50: 2.08 µM
  TGI: 5.93 µM
[34]
  GI50: 2.25 µM
  TGI: 7.09 µM
[35]
  GI50: 3.14 µM
  TGI: 10.4 µM
[36]
  GI50: 0.643 µM
  TGI: 2.58 µM
[37]
  GI50: 2 µM
  TGI: 11.1 µM
[38]
  GI50: 1.52 µM
  TGI: 4.45 µM
[39]
  GI50: 2.49 µM
  TGI: 9.41 µM
[40]
  GI50: 1.35 µM
  TGI: 8.73 µM
[41]
  GI50: 1.33 µM
  TGI: 4.76 µM
[42]
  GI50: 1.74 µM
  TGI: 5.46 µM
[43]
  GI50: 15 µM
  TGI: > 100 µM
[44]
  GI50: 1.17 µM
  TGI: 4.8 µM
[45]
  GI50: 2.86 µM
  TGI: 7.52 µM
[46]
  GI50: 1.29 µM
  TGI: 3.71 µM
[47]
  GI50: 0.946 µM
  TGI: 5.57 µM
[48]
  GI50: 3.48 µM
  TGI: 13.9 µM
[49]
  GI50: 1.14 µM
  TGI: 2.49 µM
[50]
  GI50: 1.42 µM
  TGI: 10.4 µM
[51]
  GI50: 1.98 µM
  TGI: 16.1 µM
[52]
  GI50: 0.678 µM
  TGI: 7.78 µM
[53]
  GI50: 1.94 µM
  TGI: 10.9 µM
[54]
  GI50: 3.88 µM
  TGI: 15.8 µM
[55]
  GI50: 2.94 µM
  TGI: 13.8 µM

Source: PubChem BioAssay (NCI)
